# Reference: patent publication US7192906B2, “Substituted pyrazole derivatives, production process thereof, and herbicide compositions containing the derivatives” (SDS Biotech K.K., priority 2001, dated 2007)
# System: Chenopodium album
# Experiment: Test Example 1 upland field foliage treatment
# Assay type: in vivo
# Details: Table 4, upland field foliage treatment, index 0-5
# In short: (§1)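 Scores are visual 0–5 ratings of herbicidal effect or crop injury (0: under 10%; 5: 90% or more) taken 21 days after treatment. Plants grew from seed in upland soil for 14 days, then foliage received the compound as a water-diluted wettable powder at 1 kg/ha active ingredient.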
row,Compound,Herbicidal activity CA: Chenopodium album
1,CNC(=O)C(Cn1cc(C)c(-c2ccc(Cl)cc2)n1)=NOC [Compound 47],"5 (herbicidal effect of not less than 90%, or phytotoxicity of 90% or more)"
2,CNC(=O)C(Cn1cc(C)c(-c2ccc(Oc3ccccc3)cc2)n1)=NOC [Compound 53],"5 (herbicidal effect of not less than 90%, or phytotoxicity of 90% or more)"

# System: Digitaria adscendens
# Experiment: Test Example 1 upland field foliage treatment
# Assay type: in vivo
# Details: Table 4, upland field foliage treatment, index 0-5
# In short: as §1
row,Compound,Herbicidal activity DA: Digitaria adscendens
1,CNC(=O)C(Cn1cc(C)c(-c2ccc(Cl)cc2)n1)=NOC [Compound 47],"5 (herbicidal effect of not less than 90%, or phytotoxicity of 90% or more)"
2,CNC(=O)C(Cn1cc(C)c(-c2ccc(Oc3ccccc3)cc2)n1)=NOC [Compound 53],"5 (herbicidal effect of not less than 90%, or phytotoxicity of 90% or more)"

# System: Setaria viridis
# Experiment: Test Example 1 upland field foliage treatment
# Assay type: in vivo
# Details: Table 4, upland field foliage treatment, index 0-5
# In short: as §1
row,Compound,Herbicidal activity SV: Setaria viridis
1,CNC(=O)C(Cn1cc(C)c(-c2ccc(Cl)cc2)n1)=NOC [Compound 47],"5 (herbicidal effect of not less than 90%, or phytotoxicity of 90% or more)"
2,CNC(=O)C(Cn1cc(C)c(-c2ccc(Oc3ccccc3)cc2)n1)=NOC [Compound 53],"4 (herbicidal effect of not less than 70% and less than 90%, or phytotoxicity of 70% or more and less than 90%)"

# System: Stellaria media
# Experiment: Test Example 1 upland field foliage treatment
# Assay type: in vivo
# Details: Table 4, upland field foliage treatment, index 0-5
# In short: as §1
row,Compound,Herbicidal activity SM: Stellaria media
1,CNC(=O)C(Cn1cc(C)c(-c2ccc(Cl)cc2)n1)=NOC [Compound 47],"5 (herbicidal effect of not less than 90%, or phytotoxicity of 90% or more)"
2,CNC(=O)C(Cn1cc(C)c(-c2ccc(Oc3ccccc3)cc2)n1)=NOC [Compound 53],"4 (herbicidal effect of not less than 70% and less than 90%, or phytotoxicity of 70% or more and less than 90%)"

# System: soybean (Glycine max)
# Experiment: Test Example 1 upland field foliage treatment, crop phytotoxicity
# Assay type: in vivo
# Details: Table 4, upland field foliage treatment, index 0-5
# In short: as §1
row,Compound,Herbicidal activity (phytotoxicity) GM: Soybean (Glycine max)
1,CNC(=O)C(Cn1cc(C)c(-c2ccc(Cl)cc2)n1)=NOC [Compound 47],"0 (herbicidal effect of not less than 0% and less than 10%, or phytotoxicity of 0% or more and less than 10%)"
2,CNC(=O)C(Cn1cc(C)c(-c2ccc(Oc3ccccc3)cc2)n1)=NOC [Compound 53],"0 (herbicidal effect of not less than 0% and less than 10%, or phytotoxicity of 0% or more and less than 10%)"

# System: wheat (Triticum aestivum)
# Experiment: as above
# Assay type: in vivo
# Details: Table 4, upland field foliage treatment, index 0-5
# In short: as §1
row,Compound,Herbicidal activity (phytotoxicity) TA: Wheat (Triticum aestivum)
1,CNC(=O)C(Cn1cc(C)c(-c2ccc(Cl)cc2)n1)=NOC [Compound 47],"0 (herbicidal effect of not less than 0% and less than 10%, or phytotoxicity of 0% or more and less than 10%)"
2,CNC(=O)C(Cn1cc(C)c(-c2ccc(Oc3ccccc3)cc2)n1)=NOC [Compound 53],"0 (herbicidal effect of not less than 0% and less than 10%, or phytotoxicity of 0% or more and less than 10%)"

# System: Chenopodium album
# Experiment: Test Example 2 upland soil treatment
# Assay type: in vivo
# Details: Table 5, upland soil treatment, index 0-5
# In short: (§2)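 Visual 0–5 grading of herbicidal effect or phytotoxicity, made 21 days after a single pre-emergence soil-surface application at 1 kg a.i./ha.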
row,Compound,Herbicidal activity CA: Chenopodium album
1,CNC(=O)C(Cn1cc(C)c(-c2ccc(Cl)cc2)n1)=NOC [Compound 47],"5 (herbicidal effect of not less than 90%, or phytotoxicity of 90% or more)"
2,CNC(=O)C(Cn1cc(C)c(-c2ccc(Oc3ccccc3)cc2)n1)=NOC [Compound 53],"4 (herbicidal effect of not less than 70% and less than 90%, or phytotoxicity of 70% or more and less than 90%)"

# System: Digitaria adscendens
# Experiment: Test Example 2 upland soil treatment
# Assay type: in vivo
# Details: Table 5, upland soil treatment, index 0-5
# In short: as §2
row,Compound,Herbicidal activity DA: Digitaria adscendens
1,CNC(=O)C(Cn1cc(C)c(-c2ccc(Cl)cc2)n1)=NOC [Compound 47],"5 (herbicidal effect of not less than 90%, or phytotoxicity of 90% or more)"
2,CNC(=O)C(Cn1cc(C)c(-c2ccc(Oc3ccccc3)cc2)n1)=NOC [Compound 53],"5 (herbicidal effect of not less than 90%, or phytotoxicity of 90% or more)"

# System: Setaria viridis
# Experiment: Test Example 2 upland soil treatment
# Assay type: in vivo
# Details: Table 5, upland soil treatment, index 0-5
# In short: as §2
row,Compound,Herbicidal activity SV: Setaria viridis
1,CNC(=O)C(Cn1cc(C)c(-c2ccc(Cl)cc2)n1)=NOC [Compound 47],"5 (herbicidal effect of not less than 90%, or phytotoxicity of 90% or more)"
2,CNC(=O)C(Cn1cc(C)c(-c2ccc(Oc3ccccc3)cc2)n1)=NOC [Compound 53],"3 (herbicidal effect of not less than 50% and less than 70%, or phytotoxicity of 50% or more and less than 70%)"

# System: Stellaria media
# Experiment: Test Example 2 upland soil treatment
# Assay type: in vivo
# Details: Table 5, upland soil treatment, index 0-5
# In short: as §2
row,Compound,Herbicidal activity SM: Stellaria media
1,CNC(=O)C(Cn1cc(C)c(-c2ccc(Cl)cc2)n1)=NOC [Compound 47],"5 (herbicidal effect of not less than 90%, or phytotoxicity of 90% or more)"
2,CNC(=O)C(Cn1cc(C)c(-c2ccc(Oc3ccccc3)cc2)n1)=NOC [Compound 53],"4 (herbicidal effect of not less than 70% and less than 90%, or phytotoxicity of 70% or more and less than 90%)"

# System: soybean (Glycine max)
# Experiment: Test Example 2 upland soil treatment, crop phytotoxicity
# Assay type: in vivo
# Details: Table 5, upland soil treatment, index 0-5
# In short: as §2
row,Compound,Herbicidal activity (phytotoxicity) GM: Soybean (Glycine max)
1,CNC(=O)C(Cn1cc(C)c(-c2ccc(Cl)cc2)n1)=NOC [Compound 47],"0 (herbicidal effect of not less than 0% and less than 10%, or phytotoxicity of 0% or more and less than 10%)"
2,CNC(=O)C(Cn1cc(C)c(-c2ccc(Oc3ccccc3)cc2)n1)=NOC [Compound 53],"0 (herbicidal effect of not less than 0% and less than 10%, or phytotoxicity of 0% or more and less than 10%)"

# System: wheat (Triticum aestivum)
# Experiment: as above
# Assay type: in vivo
# Details: Table 5, upland soil treatment, index 0-5
# In short: as §2
row,Compound,Herbicidal activity (phytotoxicity) TA: Wheat (Triticum aestivum)
1,CNC(=O)C(Cn1cc(C)c(-c2ccc(Cl)cc2)n1)=NOC [Compound 47],"0 (herbicidal effect of not less than 0% and less than 10%, or phytotoxicity of 0% or more and less than 10%)"
2,CNC(=O)C(Cn1cc(C)c(-c2ccc(Oc3ccccc3)cc2)n1)=NOC [Compound 53],"0 (herbicidal effect of not less than 0% and less than 10%, or phytotoxicity of 0% or more and less than 10%)"

# System: Ammannia multiflora
# Experiment: Test Example 3 paddy field treatment
# Assay type: in vivo
# Details: paddy field treatment, wettable powder, active ingredient 1 kg per hectare, 21st day after the dropping, index 0-5
# In short: (§3)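 Weed seeds sown in puddled paddy soil under 4 cm water, with two-leaf Koshihikari rice transplanted; 10 days later a wettable powder was applied to the water surface at 1 kg active ingredient/ha. Scored 21 days after application on a 0–5 scale (0 = <10%, 5 = ≥90% herbicidal effect or phytotoxicity).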
row,Compound,Herbicidal activity AM
1,CNC(=O)C(Cn1cc(C)c(-c2ccc(Cl)cc2)n1)=NOC [Compound 47],"5 (herbicidal effect of not less than 90%, or phytotoxicity of 90% or more)"
2,CNC(=O)C(Cn1cc(C)c(-c2ccc(Oc3ccccc3)cc2)n1)=NOC [Compound 53],"5 (herbicidal effect of not less than 90%, or phytotoxicity of 90% or more)"

# System: Echinochloa crusgalli
# Experiment: Test Example 3 paddy field treatment
# Assay type: in vivo
# Details: paddy field treatment, wettable powder, active ingredient 1 kg per hectare, 21st day after the dropping, index 0-5
# In short: as §3
row,Compound,Herbicidal activity EC
1,CNC(=O)C(Cn1cc(C)c(-c2ccc(Cl)cc2)n1)=NOC [Compound 47],"5 (herbicidal effect of not less than 90%, or phytotoxicity of 90% or more)"
2,CNC(=O)C(Cn1cc(C)c(-c2ccc(Oc3ccccc3)cc2)n1)=NOC [Compound 53],"5 (herbicidal effect of not less than 90%, or phytotoxicity of 90% or more)"

# System: Monochoria vaginalis
# Experiment: Test Example 3 paddy field treatment
# Assay type: in vivo
# Details: paddy field treatment, wettable powder, active ingredient 1 kg per hectare, 21st day after the dropping, index 0-5
# In short: as §3
row,Compound,Herbicidal activity MV
1,CNC(=O)C(Cn1cc(C)c(-c2ccc(Cl)cc2)n1)=NOC [Compound 47],"5 (herbicidal effect of not less than 90%, or phytotoxicity of 90% or more)"
2,CNC(=O)C(Cn1cc(C)c(-c2ccc(Oc3ccccc3)cc2)n1)=NOC [Compound 53],"5 (herbicidal effect of not less than 90%, or phytotoxicity of 90% or more)"

# System: Scirpus juncoides
# Experiment: Test Example 3 paddy field treatment
# Assay type: in vivo
# Details: paddy field treatment, wettable powder, active ingredient 1 kg per hectare, 21st day after the dropping, index 0-5
# In short: as §3
row,Compound,Herbicidal activity SJ
1,CNC(=O)C(Cn1cc(C)c(-c2ccc(Cl)cc2)n1)=NOC [Compound 47],"5 (herbicidal effect of not less than 90%, or phytotoxicity of 90% or more)"
2,CNC(=O)C(Cn1cc(C)c(-c2ccc(Oc3ccccc3)cc2)n1)=NOC [Compound 53],"5 (herbicidal effect of not less than 90%, or phytotoxicity of 90% or more)"

# System: Rice (Oryza sativa)
# Experiment: Test Example 3 paddy field treatment, crop phytotoxicity
# Assay type: in vivo
# Details: paddy field treatment, transplanted rice Koshihikari, wettable powder, active ingredient 1 kg per hectare, 21st day after the dropping, index 0-5
# In short: as §3
row,Compound,Herbicidal activity OS (phytotoxicity to rice)
1,CNC(=O)C(Cn1cc(C)c(-c2ccc(Cl)cc2)n1)=NOC [Compound 47],"0 (herbicidal effect of not less than 0% and less than 10%, or phytotoxicity of 0% or more and less than 10%)"
2,CNC(=O)C(Cn1cc(C)c(-c2ccc(Oc3ccccc3)cc2)n1)=NOC [Compound 53],"0 (herbicidal effect of not less than 0% and less than 10%, or phytotoxicity of 0% or more and less than 10%)"
